Experiment: Retest of solid form by PXRD after storage
Format: physicochemical
Conditions: after 1 month storage
Description: Unless recited otherwise, X-Ray powder diffraction data was obtained by using methods known in the art using a SCINTAG powder X-Ray diffractometer model X'TRA equipped with a solid-state detector. Copper radiation of 1.5418 Å was used. A round aluminum sample holder with zero background was used. The scanning parameters included: range: 2-40 degrees two-theta; scan mode: continuous scan; step size: 0.05 deg.; and a rate of 3 deg/min.
The product was isolated by vacuum filtration and dried at 40° C. for 16 hours to obtain STG lactate crystalline form L3.

## CC(O)C(=O)O.N[C@@H](CC(=O)N1CCn2c(nnc2C(F)(F)F)C1)Cc1cc(F)c(F)cc1F [Form L3, Sitagliptin lactate]
  Polymorphic form found by PXRD after storage: transform to form L1

Reference: US8329696B2, “Solid state forms of sitagliptin salts” (Teva Pharmaceuticals Industries Ltd., priority 2009, dated 2012)
